Results published in PubChem BioAssay (NCI).
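A five-concentration, 48-hour dose response in 96-well plates underlies each endpoint, interpolated linearly between surrounding concentrations. GI50: concentration for 50% inhibition of growth. TGI: total growth inhibition.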

Assays:
Assay in all cases: NCI anticancer screen, dose series, 48 h; in the data active = GI50 below about 0.43 µM; inactive = the rest
SK-MEL-2 melanoma = tested on: SK-MEL-2 melanoma
U251 CNS = tested on: U251 CNS
HCC-2998 colon = tested on: HCC-2998 colon
NCI-H522 lung = tested on: NCI-H522 lung
HL-60(TB) leukemia = tested on: HL-60(TB) leukemia
T-47D breast = tested on: T-47D breast
HCT-116 colon = tested on: HCT-116 colon
UO-31 renal = tested on: UO-31 renal
UACC-257 melanoma = tested on: UACC-257 melanoma
EKVX NSCLC = tested on: EKVX NSCLC
A549 NSCLC = tested on: A549 NSCLC
BT-549 breast = tested on: BT-549 breast
KM12 colon = tested on: KM12 colon
OVCAR-8 ovarian = tested on: OVCAR-8 ovarian
A498 renal = tested on: A498 renal
NCI/ADR-RES ovarian = tested on: NCI/ADR-RES ovarian
SN12C renal = tested on: SN12C renal
M14 melanoma = tested on: M14 melanoma
SR leukemia = tested on: SR leukemia
K-562 leukemia = tested on: K-562 leukemia
HCT-15 colon = tested on: HCT-15 colon
UACC-62 melanoma = tested on: UACC-62 melanoma
SK-OV-3 ovarian = tested on: SK-OV-3 ovarian
OVCAR-5 ovarian = tested on: OVCAR-5 ovarian
SK-MEL-28 melanoma = tested on: SK-MEL-28 melanoma

CC(C)[C@]12O[C@H]1[C@@H]1O[C@]13[C@]1(O[C@H]1C[C@H]1C4=C(CC[C@@]13C)C(=O)OC4)[C@@H]2OC(=O)CN(C)C
110 nM: TGI (NCI-H522 lung)
73.2 nM: TGI (SK-MEL-2 melanoma)
48.3 nM: TGI (A498 renal)
118 nM: TGI (HL-60(TB) leukemia)
189 nM: TGI (SR leukemia)
2640 nM: TGI (KM12 colon)
37.3 nM: TGI (M14 melanoma)
61.5 nM: TGI (SK-MEL-28 melanoma)
56.4 nM: TGI (BT-549 breast)
56.3 nM: TGI (UACC-257 melanoma)
44 nM: TGI (HCC-2998 colon)
active: GI50 (SK-MEL-2 melanoma) 26.7 nM | GI50 (U251 CNS) 48.8 nM | GI50 (HCC-2998 colon) 10.2 nM | GI50 (NCI-H522 lung) 21.6 nM | GI50 (HL-60(TB) leukemia) 15.3 nM | GI50 (T-47D breast) 34 nM | GI50 (HCT-116 colon) 12.8 nM | GI50 (UO-31 renal) 14.6 nM | GI50 (UACC-257 melanoma) 17.5 nM | GI50 (EKVX NSCLC) 110 nM | GI50 (A549 NSCLC) 58.7 nM | GI50 (BT-549 breast) 18.4 nM | GI50 (KM12 colon) 208 nM | GI50 (OVCAR-8 ovarian) 33.6 nM | GI50 (A498 renal) 16.1 nM | GI50 (NCI/ADR-RES ovarian) 48.1 nM | GI50 (SN12C renal) 30.9 nM | GI50 (M14 melanoma) 17 nM | GI50 (SR leukemia) 14.3 nM | GI50 (K-562 leukemia) 28.3 nM | GI50 (HCT-15 colon) 29.1 nM | GI50 (UACC-62 melanoma) 22.8 nM | GI50 (SK-OV-3 ovarian) 48.5 nM | GI50 (OVCAR-5 ovarian) 49.1 nM | GI50 (SK-MEL-28 melanoma) 20.7 nM
> 100000 nM: TGI (U251 CNS) | TGI (T-47D breast) | TGI (HCT-116 colon) | TGI (UO-31 renal) | TGI (EKVX NSCLC) | TGI (OVCAR-8 ovarian) | TGI (NCI/ADR-RES ovarian) | TGI (SN12C renal) | TGI (K-562 leukemia) | TGI (HCT-15 colon) | TGI (SK-OV-3 ovarian) | TGI (OVCAR-5 ovarian)
72.4 nM: TGI (UACC-62 melanoma)
